Assay: Differential Scanning Calorimetry (DSC) comparison of crystal forms
Type: physicochemical
Settings: comparison of DSC curves (FIG. 6); heating rate 10° C./min, 20-200° C.; melting 34° C. higher than Form I and 16° C. higher than Form II
Method: Differential Scanning Calorimetry (DSC) A. Equipment Instrument: TA Universal Analysis Q1000 Software: Universal Analysis 2000 B. Experimental Parameters Heating rate: 10° C./min Temperature range: 20-200° C. Sample size: 2.00-5.00 mg Purge gas: Nitrogen, 40 ml/min Crucible: Hermetic pinholed

CN(C)CC(c1ccc(O)cc1)C1(O)CCCCC1.O=C(O)/C=C/C(=O)O (stereo not shown) [O-Desvenlafaxine fumarate Form N, O-desmethylvenlafaxine fumarate]
thermal stability as compared to forms I and II: enhanced thermal stability
